Source: patent publication US20170027949A1, “ASSOCIATION BETWEEN 8-CYCLOPROPYL-3-[2-(3-FLUOROPHENYL)ETHYL]-7,8-DIHYDRO-3H-[1,3]OXAZINO[6,5-g][1,2,3]BENZOTRIAZINE-4,9-DIONE AND AN ACETYLCHOLINESTERASE INHIBITOR, AND PHARMACEUTICAL COMPOSITIONS CONTAINING IT” (priority 2014, published 2017)

How the values were obtained:
[1] = system: 3-month-old C57BL/6 mice; experiment: Excitatory post-synaptic potentials (EPSP) induced by electrical stimulation in alert mice (perforant pathway / dentate gyrus of the hippocampus); assay type: in vivo; conditions: single dose p.o.: Compound S 3 mg/kg, rivastigmine 0.03 mg/kg, alone or in association
Description: Studying EPSPs induced by electrical stimulation in alert mice makes it possible to study physiologically an electrophysiological phenomenon which is the basis of neuronal activity and connected to the processes of memorisation and learning.
3-month-old C57BL/6 mice are anaesthetised with 0.8-3% halothane delivered by means of a mask. Once anaesthetised, stimulation and recording electrodes are inserted, respectively, in the perforant pathway and the dentate gyrus of the hippocampus of the animals. Following implantation of the electrodes, the mice are kept in cages for from 5 to 7 days with free access to food and water in order to allow complete recovery. Each implanted animal is alone in a cage until the end of the experiment.
After recovery, a stable baseline of evoked responses is induced using paired pulses (pulse duration 100 μs, negative-positive) administered at 3 pulses/minute to the stimulation electrode situated in the perforant pathway. The intervals between pulses are fixed at 40 ms (Gruart et al., J. Neurosci. 2006, 24, 1077-1087). The field EPSPs are monitored until a stable baseline is obtained (for 30 minutes). The products or the carrier are then administered, and the evoked field potentials are recorded. […] The evoked potentials are then recorded for approximately 2.5 hours after the last administration of compound or carrier.

[2] = system: C57BL/6 mice having an average age of 14-15 months; experiment: Contextual serial discrimination test (model of episodic memory); assay type: in vivo; conditions: for percentage of correct responses: chronic treatment for 9 days, middle-aged mice, carrier 26.4%
Description: The effects of 8-cyclopropyl-3-[2-(3-fluorophenyl)ethyl]-7,8-dihydro-3H-[1,3]oxazino-[6,5-g][1,2,3]benzotriazine-4,9-dione and of donepezil (the latter used in the form of a hydrochloride), administered on their own or in combination, were studied using a contextual serial discrimination test in C57BL/6 mice having an average age of 14-15 months (n=12 per group) (Célérier et al., Learn Mem. 2004, 11(2), 196-204; Tronche et al., Behav. Brain Res. 2010, 215(2), 255-260).
The mice, placed in a high-sided box, learn two types of consecutive spatial discriminations (D1: white floor then D2: black floor) on a floor having four holes, in which only one of the holes is baited, opposite holes being baited in D1 and D2. Each discrimination is performed on a specific floor (white or black), which constitutes the internal context specific to each discrimination. Twenty-four hours after the learning step, the mice are returned to the white contextual floor and the following parameters are measured: • the percentage of correct responses (i.e. % of head dips in the hole that had been baited during the acquisition exercise on the white floor), • the percentage of interfering responses (i.e. % of head dips in the hole that had been baited during the acquisition exercise on the black floor, the last context presented to the mice), • and the percentage of errors (i.e. % of head dips in the two holes that had not been baited during the acquisition, either on the white floor or on the black floor) (see FIG. 1).

[3] = system: C57BL/6 mice; experiment: Irwin's primary observation test; conditions: on its own
Protocol: The effects in terms of safety of 8-cyclopropyl-3-[2-(3-fluorophenyl)ethyl]-7,8-dihydro-3H-[1,3]oxazino[6,5-g][1,2,3]benzotriazine-4,9-dione and of donepezil (the latter in the form of a hydrochloride), administered on their own or in association, were studied using Irwin's primary observation test in C57BL/6 mice (n=4 individuals per group). Behavioural changes, physiological and neurotoxic symptoms, rectal temperature and also pupil diameter were recorded using a standardised observation grid derived from that of Irwin.

| Compound | amplitudes of the field EPSPs relative to the carrier group [1] | percentage of correct responses ([2]; 0.1 mg/kg per os) | percentage of correct responses ([2]; 0.3 mg/kg per os) | increase in level of correct responses relative to the carrier ([2]; doses of 0.1 and 0.3 mg/kg per os, 9 days, significant) | change according to the standardised observation grid ([3]; 0.3 and 1 mg/kg of base per os, acute) | change according to the standardised observation grid ([3]; 3 and 10 mg/kg of base per os) | change in percentage of correct responses relative to the carrier ([2]; 0.1 mg/kg of base per os, 9 days) |
| --- | --- | --- | --- | --- | --- | --- | --- |
| O=C1c2cc3nnn(CCc4cccc(F)c4)c(=O)c3cc2OCN1C1CC1 [Compound S, 8-cyclopropyl-3-[2-(3-fluorophenyl)ethyl]-7,8-dihydro-3H-[1,3]oxazino[6,5-g][1,2,3]benzotriazine-4,9-dione] | does not induce a significant modification | 43.7% | 48% | more than 40% | – | – | – |
| COc1cc2c(cc1OC)C(=O)C(CC1CCN(Cc3ccccc3)CC1)C2 (stereo not drawn) [donepezil] | – | 35.5% | – | – | do not induce any change | induces shaking, slight to moderate sedation, a loss of muscle tone and a decrease in reactivity to touch | slight non-significant increase |
| CCN(C)C(=O)Oc1cccc([C@H](C)N(C)C)c1 [rivastigmine] | does not induce a significant modification | – | – | – | – | – | – |
